According to US10251871B2, “Compositions and methods for treatment of edema” (Memorial Sloan Kettering Cancer Center, priority 2015, dated 2019):

Assays:
[1] = test system: popliteal lymph node dissection (PLND) mouse model; assay: Popliteal lymph node dissection (PLND) hind limb model of lymphatic injury
[2] = test system: mouse tail model of lymphedema; assay: Mouse tail model of lymphedema (tail volume, histology, immunostaining, lymphoscintigraphy, NIR imaging, PCR, ELISA); format: in vivo, C57BL/6J mice
[3] = test system: hind limb lymphatic ablation with DT; assay: Hind limb lymphatic ablation with DT; format: in vivo, mouse
[4] = topical captopril 5% once daily for 2 weeks after PLND, vs control
[5] = topical captopril 5% once daily, 6 weeks after tail lymphatic ablation, vs control
[6] = captopril after DT lymphatic ablation, ipsilateral limb vs ipsilateral control
[7] = systemic pirfenidone once daily for 2 weeks from 2 weeks after PLND, 4 weeks after PLND, vs vehicle
[8] = systemic pirfenidone, 4 weeks after PLND, vs control
[9] = systemic pirfenidone, oral 400 mg/kg daily for 3 weeks from 7 weeks after surgery, vs control
[10] = systemic pirfenidone, vs control
[11] = topical pirfenidone 1 mg/ml daily for 3 weeks from 7 weeks after surgery, vs control
[12] = topical pirfenidone, vs control

C[C@H](CS)C(=O)N1CCC[C@H]1C(=O)O [captopril]
T cell (CD3+) infiltration in hind limb tissues [1, 4]: decreases
hind limb collecting lymphatic pumping (packet frequency) [1, 4]: increases
lymphangiogenesis (LYVE-1+ vessels) [1, 4]: increases
macrophage (F4/80+) infiltration in hind limb tissues [1, 4]: decreases
trafficking of dendritic cells (FITC+CD11c cells in inguinal lymph nodes) [1, 4]: increases
lymphatic function ([1]; topical captopril 5% once daily for 2 weeks after PLND, vs vehicle): improved lymphatic function
ACE staining area [2, 5]: significant decrease
LYVE-1+ lymphatic vessel area [2, 5]: significant decrease
dermal type I collagen staining area [2, 5]: significant decrease
number of lymphatic vessels (LYVE-1+) crossing the region of the tail wound [2, 5]: increases
perilymphatic CD3+ cells/vessel [2, 5]: significant decrease
perilymphatic F4/80 cells/vessel [2, 5]: significant decrease
subcutaneous fibroadipose tissue deposition [2, 5]: significant decrease
tail collecting vessel pumping (contraction) frequency ([2]; topical captopril ointment, 6 weeks after tail lymphatic ablation, vs control): increases
LYVE-1+ lymphatic vessel area [3, 6]: significant decrease
T cell (CD3+) infiltration in hind limb tissues [3, 6]: decreases
hind limb angiotensin converting enzyme (ACE) expression [3, 6]: decreases
hind limb collecting vessel smooth muscle (α-SMA) deposition [3, 6]: decreases
hind limb lymphangiogenesis (LYVE-1+ lymphatic vessels) [3, 6]: decreases
hind limb macrophage (F4/80+) infiltration [3, 6]: decreases
hind limb type I collagen deposition [3, 6]: decreases
formation of collateral lymphatics (ICG) ([3]; captopril after DT lymphatic ablation, vs control): increases
foot swelling ([3]; captopril treatment after hind limb lymphatic ablation with DT, vs control): obvious decrease

Cc1ccc(=O)n(-c2ccccc2)c1 [pirfenidone]
lymphatic vessels density (LYVE-1) in the hind limb ([1]; systemic pirfenidone once daily for 2 weeks from 2 weeks after PLND, 4 weeks after PLND, vs control): marked increase
dermal backflow and capillary vessel leakage (NIR lymphangiography) [1, 7]: markedly less
increase in rate of collecting lymphatic vessel contraction [1, 7]: 2 fold
perilymphatic expression of iNOS by inflammatory cells [1, 8]: significant decrease
perilymphatic infiltration of inflammatory cells (CD45+) [1, 8]: significant decrease
TGF-β1 protein accumulation (ELISA) ([2]; pirfenidone (FIG. 20I: systemic), vs control): decreased accumulation
accumulation of IFN-γ protein (ELISA) ([2]; pirfenidone (FIG. 20J: systemic), vs control): significant decrease
VEGF-C protein accumulation (ELISA) ([2]; pirfenidone (FIG. 20K: systemic), vs control): no difference
numbers of infiltrating CD4+ cells ([2]; pirfenidone treatment (systemic and topical, FIG. 20A, 20D), vs control): marked decreases
numbers of infiltrating CD3+ cells ([2]; pirfenidone treatment from 7 weeks after surgery, vs control): marked decreases
lymphatic vessels density (LYVE-1) in the tail ([2]; pirfenidone, vs control): marked increase
type I collagen around collecting lymphatics (α-SMA+/podoplanin+) ([2]; pirfenidone-treated animals vs control): essentially normal lymphatic vessels
soft tissue thickness [2, 9]: markedly decreased
tail volume [2, 9]: markedly decreased
F4/80+ cellular infiltration in lymphedematous tail tissues [2, 10]: no difference
accumulation of TGF-β1+ cells [2, 10]: markedly decreased
accumulation of pSMAD3+ cells [2, 10]: markedly decreased
dermal and subcutaneous type I collagen deposition [2, 10]: significantly decreased
increase in decay-adjusted 99Tc uptake of the sacral lymph nodes [2, 10]: ~4 fold
increase in peak nodal uptake of 99Tc [2, 10]: ~4 fold
numbers of leukocytes infiltrating the dermis and subcutaneous fat [2, 10]: markedly decreased
rate of 99Tc uptake (slope of decay-adjusted curve) [2, 10]: increased
soft tissue thickness [2, 11]: markedly decreased
tail volume [2, 11]: markedly decreased
F4/80+ cellular infiltration in lymphedematous tail tissues [2, 12]: no difference
accumulation of TGF-β1+ cells [2, 12]: markedly decreased
accumulation of pSMAD3+ cells [2, 12]: markedly decreased
dermal and subcutaneous type I collagen deposition [2, 12]: significantly decreased
increase in decay-adjusted 99Tc uptake of the sacral lymph nodes [2, 12]: ~4 fold
increase in peak nodal uptake of 99Tc [2, 12]: ~4 fold
numbers of leukocytes infiltrating the dermis and subcutaneous fat [2, 12]: markedly decreased
rate of 99Tc uptake (slope of decay-adjusted curve) [2, 12]: increased

C/C(O)=C(\C#N)C(=O)Nc1ccc(C(F)(F)F)cc1 [teriflunomide]
increase in number of DCs trafficked to the inguinal lymph node (FITC painting) ([1]; topical teriflunomide 27 mg/ml after PLND, vs control): more than 5 fold
increase in formation of collateral lymphatic vessels bypassing the zone of injury (ICG near infra-red imaging) ([1]; topical teriflunomide 27 mg/ml once daily for 2 weeks from 2 weeks after PLND, vs vehicle): 4.5 fold
decrease in tail volume ([2]; topical teriflunomide 27 mg/ml once daily for 4 weeks from 2 weeks after surgery, 6 weeks after lymphatic ablation, vs vehicle): ~6 fold
decrease in number of infiltrating CD4+ cells in tail tissues ([2]; topical teriflunomide 27 mg/ml, vs control): more than 8 fold
